In patent publication US20220274947A1, “NOVEL HETEROARYL-TRIAZOLE COMPOUNDS AS PESTICIDES” (Bayer Aktiengesellschaft, priority 2019, published 2022):

Assays:
Type in all cases: in vivo
Ctenocephalides felis [1] = assay: Ctenocephalides felis oral test (CTECFE Oral); conditions: 48 h, read-out: activity (mortality)
How it was run: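 About 20 unfed adult cat fleas fed through parafilm on cattle blood containing compound (DMSO concentrate diluted in blood to the desired concentration). Blood held at 37 °C, fleas at room temperature. Mortality (%) scored after 2 days.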

Ctenocephalides felis [2] = assay: Ctenocephalides felis in-vitro contact test, adult cat flea (CTECFE Cont); conditions: application rate 5 μg/cm^2 (=500 g/ha), adult cat fleas, after 48 hours, read-out: activity (efficacy: 100% means all fleas are dead or moribund)
How it was run: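 Acetone solutions coated on glass tube inner walls (900 ppm giving 5 μg/cm^2), then 5-10 adult fleas added and held 48 h at room temperature. Fleas unable to escape a 45-50° C. heating plate within 5 min scored dead or moribund; efficacy = % dead/moribund.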

Myzus persicae = Myzus persicae spray test; conditions: in Brassica rapa, foliar, 120 h; for mortality at 500 g/ha: read-out: activity (mortality), application rate 500 g/ha, spray, Chinese cabbage leaf disks, after 5 days; for mortality at 100 g/ha: read-out: activity (mortality), application rate 100 g/ha, spray, Chinese cabbage leaf disks, after 5 days
How it was run: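 Compound in acetone/DMF solvent diluted in water with 1000 ppm alkylarylpolyglycol ether emulsifier, sprayed onto Chinese cabbage leaf disks infested with all instars of Myzus persicae. Mortality (%) scored after 5 days.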

Spodoptera frugiperda = Spodoptera frugiperda spray test; conditions: in Zea mays, 168 h, read-out: activity (mortality)
How it was run: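 Maize leaf sections were sprayed with compound formulated in acetone/DMF and diluted in water containing 1000 ppm emulsifier. Dried leaves were infested with fall armyworm larvae, and percent mortality was scored after 7 days.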

Rhipicephalus microplus [3] = assay: Rhipicephalus (Boophilus) microplus in-vitro contact test, larval cattle tick, strain Parkhurst (BOOPMI Cont); conditions: application rate 5 μg/cm^2 (=500 g/ha), tick larvae, after 48 hours, read-out: activity (efficacy: 100% means all larvae are dead or moribund)
How it was run: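 Acetone solutions dried onto glass tube walls (900 ppm giving 5 μg/cm^2); 20-50 pyrethroid-resistant Parkhurst larvae added per tube and held 48 h at 27° C., 85% relative humidity. Efficacy scored by negative geotaxis as % dead or moribund larvae.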

Rhipicephalus microplus [4] = assay: Rhipicephalus (Boophilus) microplus injection test (BOOPMI Inj); conditions: 168 h, injection into adult engorged female ticks, egg deposition after 7 days, read-out: activity (efficacy: 100% means all eggs are infertile); for pest or weed control at 0.004 mg: application rate 4 μg/tick; for pest or weed control at 0.02 mg: application rate 20 μg/tick
How it was run: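 Five engorged adult female R. microplus ticks injected into the abdomen with 1 μL of compound diluted in DMSO, then kept in a climate chamber. Fertile egg deposition checked after 7 days; eggs without visible fertility held until hatching at about 42 days. Efficacy: 100% = all eggs infertile, 0% = all fertile.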

Diabrotica balteata = Diabrotica balteata spray test; conditions: 168 h, wheat seeds, larvae, after 7 days, read-out: activity (efficacy: 100% means all seedlings have grown up like in the untreated, uninfected control); for pest or weed control at 32 µg/disc, 100 g/ha: application rate 100 g/ha (=32 μg/well); for pest or weed control at 160 µg/disc, 500 g/ha: application rate 500 g/ha (=160 μg/well)
How it was run: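 Wheat seedlings, germinated 1 day on agar, were sprayed with compound in acetone/DMF diluted in water containing emulsifier, then infested with 10-20 Diabrotica balteata larvae. After 7 days efficacy in % was scored: 100% means seedlings grew like the untreated, uninfected control; 0% means none grew.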

| SMILES | mortality at 100 ppm (Ctenocephalides felis [1]) [%] | pest or weed control at 5 µg/cm2 (Ctenocephalides felis [2]) [%] | mortality at 500 g/ha (Myzus persicae) [%] | mortality at 100 g/ha (Spodoptera frugiperda) [%] | mortality at 500 g/ha (Spodoptera frugiperda) [%] | pest or weed control at 5 µg/cm2 (Rhipicephalus microplus [3]) [%] | pest or weed control at 0.004 mg (Rhipicephalus microplus [4]) [%] | pest or weed control at 0.02 mg (Rhipicephalus microplus [4]) [%] | pest or weed control at 32 µg/disc, 100 g/ha (Diabrotica balteata) [%] | pest or weed control at 160 µg/disc, 500 g/ha (Diabrotica balteata) [%] | mortality at 100 g/ha (Myzus persicae) [%] |
| --- | --- | --- | --- | --- | --- | --- | --- | --- | --- | --- | --- |
| C[C@H](NC(=O)c1cc(Cl)nc(C(F)(F)F)c1)c1ncnn1-c1ccc(C#N)cn1 [II-5] | 90 | 100 | 90 | 100 | 100 | 100 | 100 | 100 | 100 | 100 |  |
| C[C@H](NC(=O)c1cc(Cl)cc(OC(F)(F)F)c1)c1ncnn1-c1cc(N)ccn1 [II-7] | 100 | 90 | 100 |  | 100 |  | 100 | 100 | 100 | 100 |  |
| C[C@H](NC(=O)c1ccnc(C(F)(F)F)n1)c1ncnn1-c1ccc(C#N)cn1 [II-8] | 100 | 90 | 90 |  | 100 | 100 | 100 | 100 | 100 | 100 |  |
| C[C@H](NC(=O)c1cc(Cl)cc(C(F)F)c1)c1ncnn1-c1ccc(C#N)cn1 [II-12] | 100 | 100 | 90 | 100 | 100 | 100 | 100 | 100 | 100 | 100 | 90 |
| C[C@H](NC(=O)c1cc(Cl)cc(OC(F)(F)F)c1)c1ncnn1-c1ncc(Cl)s1 [II-16] | 100 | 100 |  | 100 |  | 100 | 100 | 100 | 100 | 100 | 90 |
| Cc1nc([C@H](C)NC(=O)c2cc(Br)cc(C(F)(F)F)c2)n(-c2ccc(C#N)cn2)n1 [II-32] |  | 100 | 90 | 100 | 100 | 100 | 80 | 100 | 100 | 100 | 100 |
| C[C@H](NC(=O)c1cc(C(F)(F)F)cc(C(F)(F)F)c1)c1ncnn1-c1ccc(C(=O)NC2CC2)cn1 [II-37] |  | 100 | 100 | 100 | 100 | 100 | 100 | 100 | 100 | 100 |  |
| C[C@H](NC(=O)c1cc(C(F)(F)F)cc(C(F)(F)F)c1)c1ncnn1-c1ccc(C(=O)N(C)C2CC2)cn1 [II-38, 6-(5-{(1S)-1-[3,5-bis(trifluoromethyl)benzamido]ethyl}-1H-1,2,4-triazol-1-yl)-N-cyclopropyl-N-methylnicotinamide] |  | 100 | 100 | 100 | 100 | 100 | 100 | 100 | 100 | 100 | 100 |
| C[C@H](NC(=O)c1cc(C(F)(F)F)cc(C(F)(F)F)c1)c1ncnn1-c1ncc(Cl)s1 [II-40] |  | 100 | 100 | 100 | 100 | 100 | 100 | 100 | 100 | 100 |  |
| Cc1nc([C@H](C)NC(=O)c2cc(Br)cc(OC(F)(F)F)c2)n(-c2ccc(C#N)cn2)n1 [II-47] | 100 | 100 |  | 100 |  | 100 | 100 | 100 | 100 |  | 100 |
| Cc1nc([C@H](C)NC(=O)c2cc(Cl)cc(Br)c2)n(-c2ccc(C#N)cn2)n1 [II-50] | 100 | 100 |  | 100 |  | 100 | 100 | 100 | 100 |  | 100 |
| Cc1nc([C@H](C)NC(=O)c2cc(Br)cc(Br)c2)n(-c2ccc(C#N)cn2)n1 [II-52] | 100 | 100 |  | 100 |  | 100 | 100 | 100 | 100 |  | 90 |
| Cc1nc([C@H](C)NC(=O)c2cc(C#N)cc(C(F)(F)F)c2)n(-c2ccc(C#N)cn2)n1 [II-53] | 100 | 100 |  | 100 |  | 100 | 100 | 100 | 100 |  | 100 |
| C[C@H](NC(=O)c1cc(Cl)cc(C#N)c1)c1ncnn1-c1ccc(C#N)cn1 [II-57] | 100 | 100 |  | 100 |  | 100 | 100 | 100 |  |  | 90 |
| Cc1nc([C@H](C)NC(=O)c2cncc(C(F)(F)F)c2)n(-c2ccc(C#N)cn2)n1 [II-63] | 100 | 100 |  |  |  | 100 | 100 | 100 | 100 |  | 100 |
| C[C@H](NC(=O)c1cc(C(F)(F)F)cc(C(F)(F)F)c1)c1ncnn1-c1ccc(C(=O)N(C)CC2CC2)cn1 [II-73] |  | 100 | 100 | 100 | 100 | 100 | 100 | 100 | 100 | 100 | 100 |
| C[C@H](NC(=O)c1cc(C(F)F)cc(C(F)F)c1)c1ncnn1-c1ccc(C#N)cn1 [II-101] |  | 100 |  | 100 |  | 100 | 100 |  | 100 |  | 90 |
| C[C@H](NC(=O)c1cc(OC(F)F)cc(C(F)F)c1)c1ncnn1-c1ccc(C#N)cn1 [II-116] |  | 100 |  | 100 |  | 100 | 100 |  | 100 |  | 90 |
| Cc1nc([C@H](C)NC(=O)c2cc(OC(F)(F)F)cc(C(F)F)c2)n(-c2ccc(C#N)cn2)n1 [II-117] |  | 100 |  | 100 |  | 100 | 100 |  | 100 |  | 100 |
